According to ChEMBL document CHEMBL4351006, “A new exploration towards aminothiazolquinolone oximes as potentially multi-targeting antibacterial agents: Design, synthesis and evaluation acting on microbes, DNA, HSA and topoisomerase IV” (Eur J Med Chem, 2019):

Key:
Type in all cases: functional
Staphylococcus aureus [1] = assay: Potentiation of cefixime-mediated antibacterial activity against methicillin resistant Staphylococcus aureus N315 assessed as cefixime MIC incubated for 24 hrs by two fold serial dilution method (reference value: 31.52 10^-3 mM); conditions: N315, 24 h
Staphylococcus aureus [2] = assay: Potentiation of cefixime-mediated antibacterial activity against Staphylococcus aureus assessed as cefixime MIC incubated for 24 hrs by two fold serial dilution method (reference value: 31.52 10^-3 mM)
Candida tropicalis = assay: Potentiation of fluconazole-mediated antifungal activity against Candida tropicalis assessed as fluconazole MIC incubated for 24 hrs by two fold serial dilution method (reference value: 26.12 10^-3 mM)
Candida albicans = assay: Potentiation of fluconazole-mediated antifungal activity against Candida albicans assessed as fluconazole MIC incubated for 24 hrs by two fold serial dilution method (reference value: 13.06 10^-3 mM)
Klebsiella pneumoniae = assay: Potentiation of cefixime-mediated antibacterial activity against Klebsiella pneumoniae assessed as cefixime MIC incubated for 24 hrs by two fold serial dilution method (reference value: 15.76 10^-3 mM)

## C=CC1=C(C(=O)O)N2C(=O)[C@@H](NC(=O)/C(=N\OCC(=O)O)c3csc(N)n3)[C@H]2SC1 [CEFIXIME]
Staphylococcus aureus [1]
  MIC: 3.94 µM
Staphylococcus aureus [2]
  MIC: 7.88 µM
Candida tropicalis
  MIC: 26.1 µM
Candida albicans
  MIC: 3.26 µM
Klebsiella pneumoniae
  MIC: 7.88 µM
